Results on 6 molecules are retold here after patent US4818753A, “Synthesis and method of use for 2, 4 diaminoquinazoline” (SRI International, priority 1987, dated 1989).

The structures appear in SMILES notation. ≈ marks a conversion by molar mass, not a printed value. Like-named read-outs stand apart in the source and are kept apart here.

Common to all, as to type: cell-based
In one assay the test system is Candida albicans (10231). Kind of assay: Broth dilution assay, F1. How it is done:
(§1) Both broth dilution and agar dilution assays were used to assess the antifungal activity of the compounds of the invention. The cultures were maintained in Sabouraud dextrose broth (SDB) and diluted with […]. 2.5 l of SDB was prepared and distributed into sterile vessels as follows: 49 ml into 1 vessel, 27 ml into 3 vessels, 45 ml into 2 vessels.
(§2) Five mg/ml concentration of each compound was prepared using DMSO as the solvent; warming and sonication were necessary to dissolve each compound completely. The compounds were then diluted in SDB according to the following protocol:
(§3) 5. 1 ug/ml--5 ml (3)+45 ml SDB
(§4) The compound at each concentration in SDB was then dispensed into 6 tubes each containing 4 ml […]. Controls (without any compound) were also prepared to insure that the solvent itself was not fungicidal or fungistatic.
(§5) Cultures were grown in SDB for 24 h at 30° C. C. albicans and C. neoformans were diluted 1:10 in SDB before inoculation. Inoculation volume for yeasts was 2 drops of diluted cells per tube. The fungal cultures were homogenized before inoculation. The same volume was added, but without dilution. All tubes were incubated at room temperature on a rotating wheel. After 16 h of incubation at room temperature, the fungistatic assay was set up on agar plates. […] Yeasts were inoculated onto SDA (the corresponding agar) plates and fungi onto mycosel agar plates. These plates were then incubated at room temperature.
(In general: Broth dilution looks for growth in wells or tubes with falling amounts of substance.)

Assay [1] relates to Cryptococcus neoformans (13690). Kind of assay: Broth dilution assay, F3. As for the experimental part: as §1, §2, §3, §4, §5
Assay [2] concerns Epidermophyton floccosum (15693). As to the kind of experiment: Broth dilution assay, F4. As for the experimental part: as §1, §2, §3, §4, §5
Assay [3] has as its system Trichophyton mentagrophytes (11481). Kind of assay: Broth dilution assay, F6. How it is done: as §1, §2, §3, §4, §5
The test system of assay [4] is Microsporum gypseum (14683). Kind of assay: Broth dilution assay, F12. The conditions noted are these: Nannizzia gypsea. How it is done: as §1, §2, §3, §4, §5
The subject of another assay is Candida. Kind of assay: Growth of Candida cultures with compound and/or SMX (FIG. 1). The following applies: SMX alone (100 ug).
For the next assay, the system named is Candida albicans (14053). As to the kind of experiment: Broth dilution assay, F2. As for the experimental part:
as §1, §2, §3, §4, §5

Assay [5] deals with Penicillium citrinum (9849). As to the kind of experiment: Broth dilution assay, F19. As for the experimental part: as §1, §2, §3, §4, §5
The mark [6] stands for this setting: Table 2, F1, Sabouraud Dextrose Broth pH 5.5, read-out: C Fungicidal.
Setting [7] is: Table 2, F1, Sabouraud Dextrose Broth pH 5.5, read-out: S Fungistatic.
Where [8] appears, read: Table 2, F3, Sabouraud Dextrose Broth pH 5.5, read-out: C Fungicidal.
Where [9] appears, read: Table 2, F3, Sabouraud Dextrose Broth pH 5.5, read-out: S Fungistatic.
[10] abbreviates: Table 2, F4, Sabouraud Dextrose Broth pH 5.5, read-out: C Fungicidal.
Where [11] appears, read: Table 2, F4, Sabouraud Dextrose Broth pH 5.5, read-out: S Fungistatic.
Where [12] appears, read: Table 2, F6, Sabouraud Dextrose Broth pH 5.5, read-out: C Fungicidal.
[13] abbreviates: Table 2, F6, Sabouraud Dextrose Broth pH 5.5, read-out: S Fungistatic.
[14] abbreviates: Table 2, Sabouraud Dextrose Broth pH 5.5, read-out: C Fungicidal.
Setting [15] is: Table 2, Sabouraud Dextrose Broth pH 5.5, read-out: S Fungistatic.

In the case of `CCCCCCCc1ccc2nc(N)nc(N)c2c1C` [R^1 = CH3 R^2 = --CH2 (CH2)5 CH3, 2,4-Diamino-5-methyl-6-n-heptylquinazoline], the MFC with Candida albicans (10231) (setting [6]) was greater than 100 µg/mL; in assay [1] (setting [8]) it was 10 µg/mL (≈ 36.7 µM); in assay [2] (setting [10]), 30 µg/mL (≈ 110 µM); in assay [3] (setting [12]), 30 µg/mL (≈ 110 µM); in assay [4] (setting [14]), 100 µg/mL (≈ 367 µM). Also, the MIC with Candida albicans (10231) (setting [7]) came to 30 µg/mL (≈ 110 µM); in assay [1] (setting [9]), 3 µg/mL (≈ 11 µM); in assay [2] (setting [11]) it was 10 µg/mL (≈ 36.7 µM); in assay [3] (setting [13]), 30 µg/mL (≈ 110 µM); in assay [4] (setting [15]), 30 µg/mL (≈ 110 µM).

On to `CCCCCCCCCCc1ccc2nc(N)nc(N)c2c1C` [R^1 = CH3 R^2 = --CH2 (CH2)8 CH3, 2,4-Diamino-5-methyl-6-n-decylquinazoline], for which the MFC is greater than 100 µg/mL in the assay on Candida albicans (10231) (setting [6]), 30 µg/mL (≈ 95.4 µM) in assay [1] (setting [8]), 30 µg/mL (≈ 95.4 µM) in assay [3] (setting [12]) and greater than 100 µg/mL in assay [4] (setting [14]). Besides, the MIC in the assay with Candida albicans (10231) (setting [7]) was 30 µg/mL (≈ 95.4 µM); in assay [1] (setting [9]) it was 3 µg/mL (≈ 9.54 µM); in assay [3] (setting [13]) it was greater than 100 µg/mL; in assay [4] (setting [15]), 100 µg/mL (≈ 318 µM).

`Cc1c(CCc2ccccc2)ccc2nc(N)nc(N)c12` [R^1 = CH3 R^2 = --CH2 (CH2)C6 H5, 2,4-Diamino-5-methyl-6-phenethylquinazline]: the MFC was greater than 100 µg/mL in the assay on Candida albicans (10231) (setting [6]); 30 µg/mL (≈ 108 µM) in assay [1] (setting [8]); 100 µg/mL (≈ 359 µM) in assay [2] (setting [10]); 30 µg/mL (≈ 108 µM) in assay [3] (setting [12]); greater than 100 µg/mL in assay [4] (setting [14]). The MIC in the assay with Candida albicans (10231) (setting [7]) is 100 µg/mL (≈ 359 µM); in assay [1] (setting [9]) it was 10 µg/mL (≈ 35.9 µM); in assay [2] (setting [11]) it was 30 µg/mL (≈ 108 µM); in assay [3] (setting [13]), 30 µg/mL (≈ 108 µM); in assay [4] (setting [15]), 100 µg/mL (≈ 359 µM).

As for `CCCCCCCCCc1ccc2nc(N)nc(N)c2c1` [R^1 = H R^2 = CH2 (CH2)7 CH3], the MFC was greater than 100 µg/mL in the assay on Candida albicans (10231) (setting [6]); greater than 30 µg/mL in assay [1] (setting [8]); no more than 0.3 µg/mL in assay [2] (setting [10]); greater than 100 µg/mL in assay [3] (setting [12]); greater than 100 µg/mL in assay [4] (setting [14]). Also, the MIC with Candida albicans (10231) (setting [7]) is 100 µg/mL (≈ 349 µM); in assay [1] (setting [9]), 3 µg/mL (≈ 10.5 µM); in assay [2] (setting [11]) it was 30 µg/mL (≈ 105 µM); in assay [3] (setting [13]), greater than 100 µg/mL; in assay [4] (setting [15]), 100 µg/mL (≈ 349 µM).

For the molecule `Cc1cc(NS(=O)(=O)c2ccc(N)cc2)no1` [SMX, sulfamethoxazole, reference compound], in the assay on Candida, the “cfu/ml over a 36-h period” value is on record as “approximately 10^8 cfu/ml”.

As to `Cc1cccc(N(C)C(=S)Oc2ccc3ccccc3c2)c1` [Tolnaftate, reference compound], the MIC in the assay with Candida albicans (10231) (Table 1, F1, Sabouraud Dextrose Broth pH 5.5, read-out: Minimum Inhibitory Concentration (S, fungistatic)) is greater than 100 µg/mL; in the assay with Candida albicans (10231) (setting [7]), greater than 100 µg/mL; with Candida albicans (14053) (Table 1, F2, Sabouraud Dextrose Broth pH 5.5, read-out: Minimum Inhibitory Concentration (S, fungistatic)) it was greater than 100 µg/mL; in assay [1] (Table 1, F3, Sabouraud Dextrose Broth pH 5.5, read-out: Minimum Inhibitory Concentration (S, fungistatic)), greater than 100 µg/mL; in assay [1] (setting [9]), greater than 100 µg/mL; in assay [2] (Table 1, F4, Sabouraud Dextrose Broth pH 5.5, read-out: Minimum Inhibitory Concentration (S, fungistatic)), no more than 0.1 µg/mL. Also, the MIC in assay [2] (setting [11]) is no more than 0.3 µg/mL; in assay [3] (Table 1, F6, Sabouraud Dextrose Broth pH 5.5, read-out: Minimum Inhibitory Concentration (S, fungistatic)) it was no more than 0.1 µg/mL; in assay [3] (setting [13]), no more than 0.3 µg/mL; in assay [4] (Table 1, Sabouraud Dextrose Broth pH 5.5, read-out: Minimum Inhibitory Concentration (S, fungistatic)), no more than 0.1 µg/mL; in assay [4] (setting [15]), no more than 0.3 µg/mL; in assay [5] (Table 1, F19, Sabouraud Dextrose Broth pH 5.5, read-out: Minimum Inhibitory Concentration (S, fungistatic)), no more than 0.3 µg/mL. Also, the MFC is greater than 100 µg/mL with Candida albicans (10231) (Table 1, F1, Sabouraud Dextrose Broth pH 5.5, read-out: Minimum Lethal Concentration (C, fungicidal)); greater than 100 µg/mL with Candida albicans (10231) (setting [6]); greater than 100 µg/mL with Candida albicans (14053) (Table 1, F2, Sabouraud Dextrose Broth pH 5.5, read-out: Minimum Lethal Concentration (C, fungicidal)); greater than 100 µg/mL in assay [1] (Table 1, F3, Sabouraud Dextrose Broth pH 5.5, read-out: Minimum Lethal Concentration (C, fungicidal)); greater than 100 µg/mL in assay [1] (setting [8]); 10 µg/mL (≈ 32.5 µM) in assay [2] (Table 1, F4, Sabouraud Dextrose Broth pH 5.5, read-out: Minimum Lethal Concentration (C, fungicidal)). Besides, the MFC in assay [2] (setting [10]) was no more than 0.3 µg/mL; in assay [3] (Table 1, F6, Sabouraud Dextrose Broth pH 5.5, read-out: Minimum Lethal Concentration (C, fungicidal)), 3 µg/mL (≈ 9.76 µM); in assay [3] (setting [12]) it was greater than 100 µg/mL; in assay [4] (Table 1, Sabouraud Dextrose Broth pH 5.5, read-out: Minimum Lethal Concentration (C, fungicidal)) it was 10 µg/mL (≈ 32.5 µM); in assay [4] (setting [14]), 30 µg/mL (≈ 97.6 µM); in assay [5] (Table 1, F19, Sabouraud Dextrose Broth pH 5.5, read-out: Minimum Lethal Concentration (C, fungicidal)) it was 30 µg/mL (≈ 97.6 µM).
